From PubChem BioAssay AID256 (DTP/NCI, 2004)
Values joined by “and” are separate entries in the source; they are usually repeats but may differ in a detail not shown here. Equal values may be shown once. Inconclusive results and toxic doses are left out.

Test system: CD2F1 mice, L1210 leukemia ip, survival T/C
Assay: NCI In Vivo Anticancer Drug Screen. Data for tumor model L1210 Leukemia (intraperitoneal) in CD2F1 (CDF1) mice
Details: higher = longer survival
How it was run: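 Read-out first: treated-group measurement over vehicle-control measurement, expressed as a ratio. Animals bore a transplanted tumor line and were dosed with compound or vehicle.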

[1] = endpoint: mean survival time, dose: 100.0 mg/kg/injection, schedule: Q01DX009 (ip), vehicle: saline with Tween-80
[2] = endpoint: mean survival time, dose: 200.0 mg/kg/injection, schedule: Q01DX009 (ip), vehicle: saline with Tween-80
[3] = endpoint: mean survival time, dose: 400.0 mg/kg/injection, schedule: Q01DX009 (ip), vehicle: saline with Tween-80
[4] = endpoint: mean survival time, dose: 100.0 mg/kg/injection, schedule: Q04DX003 (ip), vehicle: saline with Tween-80
[5] = endpoint: mean survival time, dose: 400.0 mg/kg/injection, schedule: Q04DX003 (ip), vehicle: saline with Tween-80
[6] = endpoint: mean survival time, dose: 200.0 mg/kg/injection, schedule: Q04DX003 (ip), vehicle: saline with Tween-80
[7] = endpoint: mean survival time, dose: 100.0 mg/kg/injection, schedule: Q01DX009 (ip), vehicle: saline
[8] = endpoint: mean survival time, dose: 200.0 mg/kg/injection, schedule: Q01DX009 (ip), vehicle: saline
[9] = endpoint: mean survival time, dose: 50.0 mg/kg/injection, schedule: Q04DX003 (ip), vehicle: saline with Tween-80
[10] = endpoint: mean survival time, dose: 100.0 mg/kg/injection, schedule: Q01DX001 (ip), vehicle: saline with Tween-80
[11] = endpoint: mean survival time, dose: 200.0 mg/kg/injection, schedule: Q01DX001 (ip), vehicle: saline with Tween-80

Structure (SMILES): Cn1c(/C=C/C(=O)O)cc2ccccc21
- T/C (endpoint: mean survival time, dose: 75.0 mg/kg/injection, schedule: Q01DX001 (ip), vehicle: saline): 108 % of control
- T/C (endpoint: mean survival time, dose: 150.0 mg/kg/injection, schedule: Q01DX001 (ip), vehicle: saline): 106 % of control
- T/C (endpoint: mean survival time, dose: 300.0 mg/kg/injection, schedule: Q01DX001 (ip), vehicle: saline): 106 % of control

Structure (SMILES): CC(C)(C)[N+](Cc1ccccc1)(Cc1ccccc1)Cc1ccccc1
- T/C [1]: 104 % of control
- T/C [2]: 96 % of control
- T/C [3]: 98 % of control

Structure (SMILES): O=c1[nH]ccc2sccc12
- T/C [1]: 100 % of control
- T/C [4]: 96 % of control
- T/C [2]: 105 % of control
- T/C [5]: 103 % of control

Structure (SMILES): OCCCC(Sc1ccccc1)c1ccccc1 (configuration not stated)
- T/C (endpoint: mean survival time, dose: 75.0 mg/kg/injection, schedule: Q04DX003 (ip), vehicle: saline): 91 % of control
- T/C (endpoint: mean survival time, dose: 150.0 mg/kg/injection, schedule: Q04DX003 (ip), vehicle: saline): 101 % of control
- T/C (endpoint: mean survival time, dose: 300.0 mg/kg/injection, schedule: Q04DX003 (ip), vehicle: saline): 91 % of control

Structure (SMILES): N#CCC(=O)OCCCCOC(=O)CC#N
- T/C [1]: 96 % of control
- T/C [4]: 103 % of control
- T/C [2]: 97 % of control
- T/C [6]: 97 % of control
- T/C [3]: 96 % of control
- T/C [5]: 100 % of control

Structure (SMILES): O=C(On1nnc2ccccc2c1=O)c1ccccc1
- T/C (endpoint: mean survival time, dose: 12.5 mg/kg/injection, schedule: Q01DX001 (ip), vehicle: distilled water + Tween-80): 102 % of control
- T/C (endpoint: mean survival time, dose: 25.0 mg/kg/injection, schedule: Q01DX001 (ip), vehicle: distilled water + Tween-80): 101 % of control
- T/C (endpoint: mean survival time, dose: 50.0 mg/kg/injection, schedule: Q01DX001 (ip), vehicle: distilled water + Tween-80): 98 % of control
- T/C (endpoint: mean survival time, dose: 100.0 mg/kg/injection, schedule: Q01DX001 (ip), vehicle: distilled water + Tween-80): 100 % of control
- T/C (endpoint: mean survival time, dose: 200.0 mg/kg/injection, schedule: Q01DX001 (ip), vehicle: distilled water + Tween-80): 97 % of control

Structure (SMILES): Oc1cc(N2CC2)c(O)cc1N1CC1
- T/C (endpoint: mean survival time, dose: 0.07 mg/kg/injection, schedule: Q01DX009 (ip), vehicle: saline): 111 % of control
- T/C (endpoint: mean survival time, dose: 0.15 mg/kg/injection, schedule: Q01DX009 (ip), vehicle: saline): 116 % of control

Structure (SMILES): Brc1ccc2c(c1)-c1ccccc1C2Br (configuration not stated)
- T/C (endpoint: mean survival time, dose: 62.5 mg/kg/injection, schedule: Q04DX003 (ip), vehicle: saline with Tween-80): 107 % of control
- T/C (endpoint: mean survival time, dose: 125.0 mg/kg/injection, schedule: Q04DX003 (ip), vehicle: saline with Tween-80): 109 % of control
- T/C (endpoint: mean survival time, dose: 250.0 mg/kg/injection, schedule: Q04DX003 (ip), vehicle: saline with Tween-80): 98 % of control

Structure (SMILES): OCC1C=CCC=C1
- T/C [7]: 95 % of control
- T/C [8]: 107 % of control
- T/C (endpoint: mean survival time, dose: 400.0 mg/kg/injection, schedule: Q01DX009 (ip), vehicle: saline): 101 % of control

Structure (SMILES): O=c1c2ccccc2on1-c1ncnc2nc[nH]c12
- T/C (endpoint: mean survival time, dose: 12.5 mg/kg/injection, schedule: Q01DX005 (ip), vehicle: other): 105 % of control
- T/C (endpoint: mean survival time, dose: 25.0 mg/kg/injection, schedule: Q01DX005 (ip), vehicle: other): 113 % of control
- T/C (endpoint: mean survival time, dose: 50.0 mg/kg/injection, schedule: Q01DX005 (ip), vehicle: other): 111 % of control
- T/C (endpoint: mean survival time, dose: 100.0 mg/kg/injection, schedule: Q01DX005 (ip), vehicle: other): 95 % of control

Structure (SMILES): C=[CH][Pb]([CH]=C)([O]C(=O)C(C)C)[O]C(=O)C(C)C
- T/C (endpoint: mean survival time, dose: 5.0 mg/kg/injection, schedule: Q01DX009 (ip), vehicle: saline with Tween-80): 93 % of control
- T/C (endpoint: mean survival time, dose: 10.0 mg/kg/injection, schedule: Q01DX009 (ip), vehicle: saline with Tween-80): 95 % of control

Structure (SMILES): NC1CCCCC1N.O=S(=O)([O-])CCCNC1CCCCC1.O=S(=O)([O-])CCCNC1CCCCC1.[Pt+4]
- T/C (endpoint: median survival time, dose: 0.78 mg/kg/injection, schedule: Q04DX003 (ip), vehicle: saline): 168 % of control
- T/C (endpoint: median survival time, dose: 1.56 mg/kg/injection, schedule: Q04DX003 (ip), vehicle: saline): 256 % of control
- T/C (endpoint: median survival time, dose: 3.12 mg/kg/injection, schedule: Q04DX003 (ip), vehicle: saline): 361 % of control and 365 % of control
- T/C (endpoint: median survival time, dose: 6.25 mg/kg/injection, schedule: Q04DX003 (ip), vehicle: saline): 169 % of control and 240 % of control

Structure (SMILES): O=C(CNC(=O)Nc1ccc(Cl)c(Cl)c1)NNC(=O)Nc1ccc(F)c(Cl)c1
- T/C [1]: 96 % of control
- T/C [2]: 95 % of control
- T/C [3]: 91 % of control

Structure (SMILES): O=NN(CCCCl)C(=O)Nc1ccccc1
- T/C (endpoint: mean survival time, dose: 100.0 mg/kg/injection, schedule: Q01DX001 (ip), vehicle: carboxymethylcellulose (CMC)): 96 % of control
- T/C (endpoint: mean survival time, dose: 200.0 mg/kg/injection, schedule: Q01DX001 (ip), vehicle: carboxymethylcellulose (CMC)): 119 % of control

Structure (SMILES): Cc1nc2ccc(N)cc2[nH]1
- T/C (endpoint: mean survival time, dose: 50.0 mg/kg/injection, schedule: Q01DX009 (ip), vehicle: saline): 95 % of control
- T/C [7]: 113 % of control
- T/C [8]: 95 % of control

Structure (SMILES): CSc1ncc(C(=O)O)c(SC(C)C)n1
- T/C [9]: 91 % of control
- T/C [10]: 102 % of control
- T/C [4]: 93 % of control
- T/C [11]: 92 % of control
- T/C [6]: 87 % of control

Structure (SMILES): O=c1[nH]c(=O)n(C2CC(O)C(CO)O2)cc1COCc1ccccc1 (configuration not stated)
- T/C (endpoint: mean survival time, dose: 100.0 mg/kg/injection, schedule: Q01DX005 (ip), vehicle: saline): 95 % of control
- T/C (endpoint: mean survival time, dose: 200.0 mg/kg/injection, schedule: Q01DX005 (ip), vehicle: saline): 105 % of control and 97 % of control

Structure (SMILES): CC(C)NC1=C(NC(=O)NC(=O)c2ccccc2)C(=O)c2ccccc2C1=O
- T/C (endpoint: mean survival time, dose: 100.0 mg/kg/injection, schedule: Q01DX001 (ip), vehicle: other): 100 % of control
- T/C (endpoint: mean survival time, dose: 200.0 mg/kg/injection, schedule: Q01DX001 (ip), vehicle: other): 103 % of control
- T/C (endpoint: mean survival time, dose: 400.0 mg/kg/injection, schedule: Q01DX001 (ip), vehicle: other): 106 % of control

Structure (SMILES): CC(C)(C)N1CC(C(O)(c2ccccc2)c2ccccc2)C1
- T/C (endpoint: mean survival time, dose: 25.0 mg/kg/injection, schedule: Q01DX001 (ip), vehicle: saline with Tween-80): 101 % of control
- T/C (endpoint: mean survival time, dose: 50.0 mg/kg/injection, schedule: Q01DX001 (ip), vehicle: saline with Tween-80): 101 % of control

Structure (SMILES): NC1=NCCCN1
- T/C (endpoint: mean survival time, dose: 3.0 mg/kg/injection, schedule: Q01DX009 (ip), vehicle: saline sonified): 109 % of control
- T/C (endpoint: mean survival time, dose: 6.0 mg/kg/injection, schedule: Q01DX009 (ip), vehicle: saline sonified): 111 % of control
- T/C (endpoint: mean survival time, dose: 12.0 mg/kg/injection, schedule: Q01DX009 (ip), vehicle: saline sonified): 94 % of control

Structure (SMILES): Cc1cccc(CCc2cccc(C)n2)n1
- T/C (endpoint: mean survival time, dose: 100.0 mg/kg/injection, schedule: Q04DX003 (ip), vehicle: saline): 103 % of control
- T/C (endpoint: mean survival time, dose: 200.0 mg/kg/injection, schedule: Q04DX003 (ip), vehicle: saline): 103 % of control
- T/C (endpoint: mean survival time, dose: 400.0 mg/kg/injection, schedule: Q04DX003 (ip), vehicle: saline): 103 % of control

Structure (SMILES): O=C(NC(Cc1ccccc1)C(=O)CCl)OCc1ccccc1 (configuration not stated)
- T/C (endpoint: mean survival time, dose: 25.0 mg/kg/injection, schedule: Q04DX003 (ip), vehicle: saline with Tween-80): 97 % of control
- T/C [9]: 100 % of control
- T/C [4]: 109 % of control

Structure (SMILES): OC(CC1=NNC(=S)NC1)(C(F)(F)F)C(F)(F)F
- T/C (endpoint: mean survival time, dose: 50.0 mg/kg/injection, schedule: Q01DX009 (ip), vehicle: saline with Tween-80): 94 % of control
- T/C [1]: 89 % of control

Structure (SMILES): Nc1nc(-c2cccc([N+](=O)[O-])c2)c(N=Nc2ccccc2)s1
- T/C [10]: 95 % of control
- T/C [11]: 100 % of control

Structure (SMILES): C=C1C(C)C2C(Cc3ccccc3)NC(=O)C23C(OC(C)=O)C=CC(C)(O)C(=O)C(C)C/C=C/C3C1O (configuration not stated)
- T/C (endpoint: mean survival time, dose: 0.63 mg/kg/injection, schedule: Q01DX009 (ip), vehicle: Klucel (hydroxypropylcellulose) (HPC)): 101 % of control
- T/C (endpoint: mean survival time, dose: 1.25 mg/kg/injection, schedule: Q01DX009 (ip), vehicle: Klucel (hydroxypropylcellulose) (HPC)): 101 % of control
- T/C (endpoint: mean survival time, dose: 2.5 mg/kg/injection, schedule: Q01DX009 (ip), vehicle: Klucel (hydroxypropylcellulose) (HPC)): 95 % of control
- T/C (endpoint: mean survival time, dose: 5.0 mg/kg/injection, schedule: Q01DX009 (ip), vehicle: Klucel (hydroxypropylcellulose) (HPC)): 98 % of control

Structure (SMILES): N#Cc1nc(/C=C\c2ccc3c(c2)OCO3)cnc1N
- T/C (endpoint: mean survival time, dose: 100.0 mg/kg/injection, schedule: Q01DX001 (ip), vehicle: Klucel (hydroxypropylcellulose) (HPC)): 90 % of control
- T/C (endpoint: mean survival time, dose: 200.0 mg/kg/injection, schedule: Q01DX001 (ip), vehicle: Klucel (hydroxypropylcellulose) (HPC)): 90 % of control
- T/C (endpoint: mean survival time, dose: 400.0 mg/kg/injection, schedule: Q01DX001 (ip), vehicle: Klucel (hydroxypropylcellulose) (HPC)): 90 % of control
